Measurements from ChEMBL document CHEMBL1141270, “Withanolides from Jaborosa kurtzii” (2007).

Tests used:
Avena sativa = assay: Phytotoxicity against Avena sativa assessed as inhibition of radicle length at 400 ppm; type: functional
Lactuca sativa = assay: Phytotoxicity against Lactuca sativa assessed as inhibition in radicle length at 400 ppm; type: functional

CC1=C(C)C(=O)O[C@]2(C1)O[C@@]1(O)CC3C(CC=C4CC=CC(=O)[C@@]43C)C3CC[C@@](O)([C@@H]2C)[C@]31C (some centres not stated) [JABOROSALACTONE 43]
inhibition at 400 ppm (Avena sativa): 4% | inhibition at 400 ppm (Lactuca sativa): 32%
